Blank lines part the entries; values can stand above or below the compound they belong to. The source made the active and inactive calls.
Columns and labels:
[1] = biological target: Heat shock protein HSP 90-alpha (Homo sapiens, UniProt P07900); type: functional, organism-based
[2] = biological target: Phospholipase A2 (Homo sapiens, UniProt P04054); type: functional;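 note: confirmatory dose-response counterscreen on phospholipase A2, testing hits that came from an ultra-high-throughput screen for ATG4B inhibitors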
[3] = biological target: T1, Carboxy-terminal domain RNA polymerase II polypeptide A small phosphatase 1 (Homo sapiens, UniProt Q9GZU7); assay: inhibitors of CTDSP1, concentration-response testing, biochemical assay, absorbance-based, actives from ultra-high-throughput screening (AID 540297); type: functional
T1 sequence (Q9GZU7 whole entry): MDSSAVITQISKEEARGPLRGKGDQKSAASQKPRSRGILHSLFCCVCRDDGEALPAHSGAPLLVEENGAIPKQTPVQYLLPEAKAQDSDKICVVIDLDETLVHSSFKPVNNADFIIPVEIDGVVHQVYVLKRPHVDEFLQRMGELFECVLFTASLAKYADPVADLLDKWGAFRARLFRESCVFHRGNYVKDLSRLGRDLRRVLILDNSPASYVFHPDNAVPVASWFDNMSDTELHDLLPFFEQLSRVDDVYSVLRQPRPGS

[4] = biological target: T2, Cysteine protease ATG4B (Homo sapiens, UniProt Q9Y4P1); type: functional;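 note: Fluorescence-based dose-response confirmation assay measuring inhibition of ATG4B activity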
T2 sequence (Q9Y4P1 whole entry): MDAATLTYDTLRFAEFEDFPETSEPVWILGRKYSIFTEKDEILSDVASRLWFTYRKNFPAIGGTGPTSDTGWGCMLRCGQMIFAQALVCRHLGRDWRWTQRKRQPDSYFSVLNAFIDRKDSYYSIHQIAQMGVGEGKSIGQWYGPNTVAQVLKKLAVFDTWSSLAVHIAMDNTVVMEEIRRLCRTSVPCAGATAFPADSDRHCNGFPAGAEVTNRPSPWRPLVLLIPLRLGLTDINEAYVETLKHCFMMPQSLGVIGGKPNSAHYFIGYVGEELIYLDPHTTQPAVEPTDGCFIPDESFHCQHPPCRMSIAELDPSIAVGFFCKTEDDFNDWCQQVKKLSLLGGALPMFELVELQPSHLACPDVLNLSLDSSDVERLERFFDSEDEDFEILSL

[5] = biological target: T3, Leucine aminopeptidase (Plasmodium falciparum 3D7, UniProt Q8IL11); assay: P. falciparum M17LAP inhibitors, primary screen, biochemical, fluorogenic H-Leu-NHMec substrate, 1536-well (AID 1619); type: functional
T3 sequence (Q8IL11 whole entry): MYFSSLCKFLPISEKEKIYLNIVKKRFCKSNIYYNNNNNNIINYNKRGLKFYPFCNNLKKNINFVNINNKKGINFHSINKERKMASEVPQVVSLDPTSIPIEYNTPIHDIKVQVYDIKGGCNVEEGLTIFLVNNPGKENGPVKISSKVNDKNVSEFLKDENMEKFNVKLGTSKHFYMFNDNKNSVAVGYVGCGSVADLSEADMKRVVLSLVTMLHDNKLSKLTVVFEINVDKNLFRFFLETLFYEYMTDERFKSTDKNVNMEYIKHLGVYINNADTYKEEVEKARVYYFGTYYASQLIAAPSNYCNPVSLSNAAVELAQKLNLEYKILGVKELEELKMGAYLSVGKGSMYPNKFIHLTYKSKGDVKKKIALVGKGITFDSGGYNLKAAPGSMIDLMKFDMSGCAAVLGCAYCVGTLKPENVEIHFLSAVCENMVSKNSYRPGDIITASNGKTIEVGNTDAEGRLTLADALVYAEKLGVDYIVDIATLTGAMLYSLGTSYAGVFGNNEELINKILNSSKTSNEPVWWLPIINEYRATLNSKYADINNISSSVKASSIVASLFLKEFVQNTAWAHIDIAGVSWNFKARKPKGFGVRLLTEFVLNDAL

[6] = biological target: T4, Interleukin-8 (Homo sapiens, UniProt P10145); assay: Dose Response confirmation of uHTS small molecule hits for cystic fibrosis induced NFkb Inhibitors in a PAF-induced IL8 counterscreen.; type: functional; settings: read-out: IC50_Mean
T4 sequence (P10145 whole entry): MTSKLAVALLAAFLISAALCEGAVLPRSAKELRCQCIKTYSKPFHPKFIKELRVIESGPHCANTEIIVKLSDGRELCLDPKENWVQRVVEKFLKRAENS

[7] = biological target: T4, Interleukin-8; assay: Dose Response confirmation of uHTS small molecule hits for cystic fibrosis induced NFkb Inhibitors in a TNFa-induced IL8 counterscreen.; type: functional; settings: read-out: IC50_Mean
[8] = biological target: 72 kDa type IV collagenase (Homo sapiens, UniProt P08253); assay: Dose Response validation of uHTS RPN11 inhibitor hits using a MMP-2 Fluorescence assay.; type: functional
[9] = biological target: 26S proteasome non-ATPase regulatory subunit 14 (Homo sapiens, UniProt O00487); assay: inhibition of proteasome subunit RPN11 – biochemical, fluorescence polarization, uHTS hits, confirmation (AID 602368); type: functional
[10] = biological target: Prothrombin (Bos taurus, UniProt P00735); assay: thrombin inhibition, dose response, biochemical, fluorescence polarization, uHTS hits (AID 602369); type: functional
[11] = tested on: SN12K1; assay: cells; type: functional; settings: Homo sapiens
[12] = tested on: P388; assay: cells; type: functional; settings: Mus musculus
[13] = tested on: P388/ADR; assay: cells; type: functional; settings: Mus musculus, P388/ADR
[14] = biological target: Melanocortin receptor 4 (Homo sapiens, UniProt P32245); assay: MC4R antagonist potency on cAMP, dose response, cell-based, TR-FRET, biased antagonists (AID 602298); type: functional;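 note: antagonist potency against agonist-stimulated cAMP production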
[15] = nonselective inhibitors of cellular cAMP signaling, dose response, counter-screen for MC4R biased antagonist project, cell-based, TR-FRET cAMP detection (AID 602305); type: functional;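 note: U2OS cells stimulated with forskolin near its EC80 as the cAMP inducer; potency is for inhibition of forskolin-stimulated cAMP signaling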
[16] = biological target: Photoreceptor-specific nuclear receptor (Homo sapiens, UniProt Q9Y5X4); type: functional, cell-based;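 note: CHO-S cells with Gal4-NCOR and VP16-NR2E3 two-hybrid luciferase reporter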
Chain of Photoreceptor-specific nuclear receptor (Q9Y5X4 whole entry, the tested form may be a part): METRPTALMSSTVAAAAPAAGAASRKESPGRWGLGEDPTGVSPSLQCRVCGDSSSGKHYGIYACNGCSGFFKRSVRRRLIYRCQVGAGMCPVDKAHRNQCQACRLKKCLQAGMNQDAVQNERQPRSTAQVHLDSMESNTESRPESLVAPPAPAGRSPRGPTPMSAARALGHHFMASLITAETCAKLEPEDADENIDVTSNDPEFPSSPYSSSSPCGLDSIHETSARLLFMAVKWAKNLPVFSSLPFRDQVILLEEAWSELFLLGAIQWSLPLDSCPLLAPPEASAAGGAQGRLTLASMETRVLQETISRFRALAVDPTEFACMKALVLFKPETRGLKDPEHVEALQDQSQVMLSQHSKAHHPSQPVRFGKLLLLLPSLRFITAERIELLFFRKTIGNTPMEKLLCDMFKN

Chain of 72 kDa type IV collagenase (P08253 whole entry): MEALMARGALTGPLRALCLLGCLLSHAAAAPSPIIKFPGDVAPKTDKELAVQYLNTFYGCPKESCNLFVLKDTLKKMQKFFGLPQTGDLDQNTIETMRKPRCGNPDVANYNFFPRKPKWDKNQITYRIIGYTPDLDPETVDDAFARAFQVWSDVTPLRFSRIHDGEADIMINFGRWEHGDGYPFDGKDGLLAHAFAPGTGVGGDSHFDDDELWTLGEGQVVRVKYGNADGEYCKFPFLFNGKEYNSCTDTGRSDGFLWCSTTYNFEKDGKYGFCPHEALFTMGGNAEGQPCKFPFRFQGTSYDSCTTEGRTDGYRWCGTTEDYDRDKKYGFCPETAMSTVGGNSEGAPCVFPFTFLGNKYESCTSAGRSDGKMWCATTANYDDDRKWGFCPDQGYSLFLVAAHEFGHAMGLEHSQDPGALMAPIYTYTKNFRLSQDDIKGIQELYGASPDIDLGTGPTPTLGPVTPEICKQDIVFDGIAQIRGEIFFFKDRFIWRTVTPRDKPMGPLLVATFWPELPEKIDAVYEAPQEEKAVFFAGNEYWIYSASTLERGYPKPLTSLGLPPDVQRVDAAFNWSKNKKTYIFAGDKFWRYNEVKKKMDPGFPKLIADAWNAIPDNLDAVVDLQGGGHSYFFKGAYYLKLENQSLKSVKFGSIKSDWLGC
Chain of Melanocortin receptor 4 (P32245 whole entry): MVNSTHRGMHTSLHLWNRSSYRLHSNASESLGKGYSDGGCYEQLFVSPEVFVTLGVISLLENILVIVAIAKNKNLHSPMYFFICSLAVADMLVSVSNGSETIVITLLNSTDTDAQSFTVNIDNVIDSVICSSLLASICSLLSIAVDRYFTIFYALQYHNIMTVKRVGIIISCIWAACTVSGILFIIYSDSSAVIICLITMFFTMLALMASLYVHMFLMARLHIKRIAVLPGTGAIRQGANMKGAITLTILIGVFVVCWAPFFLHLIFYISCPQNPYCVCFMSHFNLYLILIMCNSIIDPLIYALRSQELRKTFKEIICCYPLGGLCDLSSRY
Chain of Phospholipase A2 (P04054 whole entry, the tested form may be a part): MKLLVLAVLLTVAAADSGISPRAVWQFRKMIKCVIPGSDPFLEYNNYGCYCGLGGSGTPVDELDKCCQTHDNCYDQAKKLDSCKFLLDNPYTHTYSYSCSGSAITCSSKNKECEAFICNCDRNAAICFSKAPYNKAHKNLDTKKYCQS
Chain of 26S proteasome non-ATPase regulatory subunit 14 (O00487 whole entry): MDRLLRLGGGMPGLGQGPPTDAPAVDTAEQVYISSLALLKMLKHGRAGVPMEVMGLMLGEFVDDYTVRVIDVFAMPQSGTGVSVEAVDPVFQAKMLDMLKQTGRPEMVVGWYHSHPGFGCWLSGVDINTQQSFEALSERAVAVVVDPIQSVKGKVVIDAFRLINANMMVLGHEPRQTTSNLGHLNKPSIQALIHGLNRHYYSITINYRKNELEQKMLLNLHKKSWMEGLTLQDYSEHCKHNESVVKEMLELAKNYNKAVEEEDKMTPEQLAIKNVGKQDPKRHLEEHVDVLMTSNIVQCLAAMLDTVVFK

AC50 [1]: 4.22 µM (active)
SMILES: COc1ccc(/C=C/C(=O)c2cc(Br)ccc(=O)c2O)cc1

IC50 [2]: 32.1 µM (inactive) | IC50 [3]: 8.53 µM (active) | IC50 [4]: 27.1 µM (inactive) | IC50 [5]: 21.3 µM (active)
SMILES: O=C(O)COc1ccccc1/C=C1\SC(=S)N(/N=C/c2ccccc2O)C1=O

IC50 [6]: 9.42 µM (active) | IC50 [7]: 3.19 µM (active)
SMILES: O=C(CC12CC3CC(CC(C3)C1)C2)Nc1nncs1

IC50 [8]: > 100 µM (inactive) | IC50 [9]: 17.8 µM (active) | IC50 [10]: 13.1 µM (active)
SMILES: CCOC(=O)C1=C(Nc2ccc(OC)cc2)S/C(=C\c2ccc(-c3ccccc3C(=O)O)o2)C1=O

SMILES: N/C(=N/O)N/N=C\c1cc(Cl)cc(Cl)c1O
GI50 [11]: 0.366 µM (active) | GI50 [12]: 0.0182 µM (active) | GI50 [13]: 0.998 µM (active)

IC50 [6]: 5.76 µM (active) | IC50 [7]: > 79 µM (inactive)
SMILES: Cc1ccc(/N=C/c2cc3c(cc2O)OC(N)=C(C#N)C3c2ccccc2)cc1 (stereo not given)

SMILES: Cc1ncn(-c2ccc(C(=O)Oc3ccccc3)cn2)n1
IC50 [14]: > 64.5 µM (inactive) | IC50 [15]: > 64.5 µM (inactive)

SMILES: CCC1(O)C(=O)OCc2c1cc1n(c2=O)Cc2cc3cc(O)ccc3nc2-1 (stereo not given)
IC50 [6]: 3 µM (active) | IC50 [7]: 40.5 µM (inactive) | IC50 [16]: 4.21 µM (active)

Reference: ChEMBL document CHEMBL1201862, “PubChem BioAssay data set” (2004)
